Series [1] concerns HCAECs. Briefly: Real time RT-PCR gene expression (HCAECs). Type of series: cell-based, human. The conditions noted are these: 24 h. Here is the method:
After a careful analysis of the microarray data, key genes (CDC6, CCNE2, KITLG, ALDH3A1, CCNB1, CDC2, HMMR, DIAPH3, ANLN, and CDKN3) were chosen for quantitative real-time PCR (qRT-PCR) to verify the gene expression results. HCAECs and HUVECs were exposed to SsnB or vehicle control for 24 h (as previously described in the microarray section). For RT-PCR, RNA was isolated from the cells with the RNeasy Mini kit as described previously. After forward and reverse primer kits (Qiagen, Valencia, Calif.) were selected, the RNA was amplified. The one-step RT-PCR reactions were completed on the BioRad iCycler thermal cycler system in the Instrumentation Resource Facility at the USC School of Medicine. The expression levels were normalized, and RNA levels were quantified.
Microarray data analysis, including data normalization (robust multi-array average), identification of differentially expressed genes (comparative analyses with dChip software), and heat map construction, was carried out to determine how SsnB affects gene expression and affected pathways (n=2 for HUVECs and n=3 for HCAECs). After a careful analysis of the microarray data, several key genes were chosen for qRT-PCR to verify the gene expression results. The genes were chosen based on the following criteria: fold change ≧2, p<0.05, unpaired t-test with a false discovery rate approximating 0%, appearing in both data sets (HUVECs and HCAECs), and gene function relating to cell proliferation and/or angiogenesis. For qRT-PCR, the expression levels were normalized to the housekeeping gene GAPDH, and RNA levels were compared between groups with the ΔΔCt method.

The subject of series [2] is chick chorioallantoic membrane (CAM). Nature of the series: Chick chorioallantoic membrane (CAM) assay. Type of series: in vivo. The conditions noted are these: methylcellulose disc, 100 micromolar SsnB. As for the experimental part: To investigate the effects of SsnB on in vivo angiogenesis, a chick chorioallantoic membrane (CAM) assay was utilized. Chick embryos were exposed to methylcelluose discs containing vehicle control (DMSO) or 100 micromolar SsnB.
Methylcellulose discs were created with a solution of 0.5% methylcellulose (diluted in sterile deionized water). A methylcellulose solution of 100 micromolar SsnB was made by adding 1.1 microliters of stock SsnB (93 mM) to 1 ml 0.5% methylcellulose. A vehicle control solution was created by adding 1 microliter of dimethyl sulfoxide (DMSO) to 1 ml 0.5% methylcellulose. Discs were created by placing 20 microliter droplets of SsnB or vehicle control solution onto polytetrafluoroethylene tape (to minimize sticking during drying) and allowed to dry under a laminar flow hood.
The fertilized eggs were placed in a humidified egg incubator with forced air circulation at 37° C. The eggs were automatically rotated every three hours. After 4 days of incubation, the eggs were removed and cracked. Chick embryos with intact yolks were placed in 100 mm petri plates. Each petri plate was placed in a weigh boat containing 13 ml Moscona's buffer and covered with cellophane wrap with two holes for air circulation. The plates were placed in a water-jacketed incubator (37 C, 5% CO2) for 2 days. After 2 days of incubation, the methylcellulose discs containing either SsnB or vehicle control were placed on top of the CAM of each embryo in the right upper quadrant in an area near the allantoic vessels. After 2 additional days of incubation, the CAMs were examined and photographed with a dissecting stereomicroscope. Images were taken of areas containing the discs and non-treated regions. Each group contained seven embryos (calculated with PS 3.0.5 software, effect size of 50%, standard deviation of 30%, statistical power of 0.8, and α=0.05). The CAM assay was completed two times.
Images were analyzed with ImagePro Plus software. Blood vessel length and branching number were utilized to measure the effect of SsnB on angiogenesis. The vessel length was measured for areas containing the discs and non-treated regions. Normalized vessel length was calculated by dividing the length values of the treated regions by those of the non-treated regions. The same process was repeated for measuring the branching number.

Setting [3] is: SsnB vs vehicle control, normalized to GAPDH.

The structures appear in SMILES notation. Entries after “also recorded” stand apart in the source; their conditions may differ.

As to `O=c1occ2c3c(ccc(O)c13)Oc1ccc(O)cc1-2` [SsnB, Sparstolonin B], in series [1], the “ALDH3A1 expression (qRT-PCR)” value was 4620 % of controls, the “CCNE2 gene expression after SsnB exposure (qRT-PCR)” value was 57 % of controls, the “CDC6 gene expression after SsnB exposure (qRT-PCR)” value is recorded as 14 % of controls and the “KITLG expression (qRT-PCR)” value is 260 % of controls. In series [1] (setting [3]), the “ALDH3A1 PCR 2^ΔΔCt value” turned out to be 46.2, the “ANLN PCR 2^ΔΔCt value” is recorded as 0.13, the “CCNB1 PCR 2^ΔΔCt value” amounted to 0.13 and the “CCNE2 PCR 2^ΔΔCt value” amounted to 0.57. Further, in series [1] (setting [3]), the “CDC2 PCR 2^ΔΔCt value” was determined as 0.17, the “CDC6 PCR 2^ΔΔCt value” came to 0.14, the “CDKN3 PCR 2^ΔΔCt value” was 0.22 and the “DIAPH3 PCR 2^ΔΔCt value” was 0.26. In addition, in series [1] (setting [3]), the “HMMR PCR 2^ΔΔCt value” stood at 0.062 and the “KITLG PCR 2^ΔΔCt value” is listed as 2.6. Besides, in series [2] (2 days), the “blood vessel diameter and size” value was “decrease”. Further, the normalized branch number entry in series [2] (2 days, vs vehicle control) is given as “significant decrease; also recorded: significant reduction”. The “normalized blood vessel length (capillary length)” value in series [2] (2 days, vs vehicle control, p<0.05) is “significant decrease; also recorded: significant reduction”. Also, in series [2] (relative to vehicle control), the “viability or morphology of the embryos” value is listed as “no effect”.
